Source: the NIST ThermoML archive (doi:10.1021/je400055v)
Numbers after ± are expanded uncertainties.

Test: xn = mol fraction of the nth substance listed
Conditions: Liquid, Vibrating tube method

CCCCCCCCCCC [undecane] + CCCCCCC
Conditions	mass density [kg/m3]
343.03 K, 20000 kPa, x2 = 0.7482	682.7 ± 0.4
343.03 K, 21000 kPa, x2 = 0.7482	683.6 ± 0.4
343.03 K, 22000 kPa, x2 = 0.7482	684.5 ± 0.4
343.03 K, 23000 kPa, x2 = 0.7482	685.4 ± 0.5
343.03 K, 24000 kPa, x2 = 0.7482	686.2 ± 0.5
343.03 K, 25000 kPa, x2 = 0.7482	687.1 ± 0.5
343.06 K, 1010 kPa, x2 = 0.2346	693.6 ± 0.3
343.06 K, 2010 kPa, x2 = 0.2346	694.6 ± 0.3
343.06 K, 3010 kPa, x2 = 0.2346	695.7 ± 0.3
343.06 K, 4011 kPa, x2 = 0.2346	696.7 ± 0.3
343.06 K, 5011 kPa, x2 = 0.2346	697.7 ± 0.3
343.06 K, 6011 kPa, x2 = 0.2346	698.7 ± 0.3
343.06 K, 7012 kPa, x2 = 0.2346	699.7 ± 0.3
343.06 K, 8012 kPa, x2 = 0.2346	700.6 ± 0.3
343.06 K, 9012 kPa, x2 = 0.2346	701.6 ± 0.3
343.06 K, 10013 kPa, x2 = 0.2346	702.5 ± 0.3
343.06 K, 11013 kPa, x2 = 0.2346	703.5 ± 0.3
343.06 K, 12014 kPa, x2 = 0.2346	704.4 ± 0.3
343.06 K, 13014 kPa, x2 = 0.2346	705.3 ± 0.3
343.06 K, 14014 kPa, x2 = 0.2346	706.2 ± 0.4
343.06 K, 15015 kPa, x2 = 0.2346	707 ± 0.4
343.06 K, 16016 kPa, x2 = 0.2346	707.9 ± 0.4
343.06 K, 17016 kPa, x2 = 0.2346	708.8 ± 0.4
343.06 K, 18017 kPa, x2 = 0.2346	709.6 ± 0.4
343.06 K, 19017 kPa, x2 = 0.2346	710.4 ± 0.4
343.06 K, 20018 kPa, x2 = 0.2346	711.3 ± 0.4
343.06 K, 21051 kPa, x2 = 0.2346	712.1 ± 0.4
343.06 K, 22053 kPa, x2 = 0.2346	712.9 ± 0.4
343.06 K, 23055 kPa, x2 = 0.2346	713.7 ± 0.4
343.06 K, 24057 kPa, x2 = 0.2346	714.5 ± 0.4
343.06 K, 25059 kPa, x2 = 0.2346	715.2 ± 0.4
352.9 K, 1001 kPa, x2 = 0.9511	636.9 ± 0.3
352.9 K, 2000 kPa, x2 = 0.9511	638.4 ± 0.3
352.9 K, 3000 kPa, x2 = 0.9511	639.8 ± 0.3
352.9 K, 4000 kPa, x2 = 0.9511	641.1 ± 0.3
352.9 K, 5000 kPa, x2 = 0.9511	642.5 ± 0.3
352.9 K, 6000 kPa, x2 = 0.9511	643.8 ± 0.3
352.9 K, 7000 kPa, x2 = 0.9511	645.1 ± 0.3
352.9 K, 8000 kPa, x2 = 0.9511	646.4 ± 0.3
352.9 K, 9000 kPa, x2 = 0.9511	647.7 ± 0.3
352.9 K, 10000 kPa, x2 = 0.9511	648.9 ± 0.4
352.9 K, 11000 kPa, x2 = 0.9511	650.1 ± 0.4
352.9 K, 12000 kPa, x2 = 0.9511	651.3 ± 0.4
352.9 K, 13000 kPa, x2 = 0.9511	652.5 ± 0.4
352.9 K, 14001 kPa, x2 = 0.9511	653.6 ± 0.4
352.9 K, 15001 kPa, x2 = 0.9511	654.8 ± 0.4
352.9 K, 16000 kPa, x2 = 0.9511	655.9 ± 0.4
352.9 K, 17001 kPa, x2 = 0.9511	657 ± 0.4
352.9 K, 18001 kPa, x2 = 0.9511	658 ± 0.4
352.9 K, 19000 kPa, x2 = 0.9511	659.1 ± 0.4
352.9 K, 20000 kPa, x2 = 0.9511	660.1 ± 0.4
352.9 K, 21001 kPa, x2 = 0.9511	661.2 ± 0.5
352.9 K, 22000 kPa, x2 = 0.9511	662.2 ± 0.5
352.9 K, 23001 kPa, x2 = 0.9511	663.2 ± 0.5
352.9 K, 24000 kPa, x2 = 0.9511	664.1 ± 0.5
352.9 K, 25000 kPa, x2 = 0.9511	665.1 ± 0.5
352.96 K, 1001 kPa, x2 = 0.05	694 ± 0.3
352.96 K, 2001 kPa, x2 = 0.05	695.1 ± 0.3
352.96 K, 2001 kPa, x2 = 0.5063	672.2 ± 0.3
352.96 K, 3000 kPa, x2 = 0.05	696.1 ± 0.3
352.96 K, 3000 kPa, x2 = 0.5063	673.4 ± 0.3
352.96 K, 4000 kPa, x2 = 0.05	697.2 ± 0.3
352.96 K, 4000 kPa, x2 = 0.5063	674.6 ± 0.3
352.96 K, 5000 kPa, x2 = 0.05	698.2 ± 0.3
352.96 K, 5000 kPa, x2 = 0.5063	675.7 ± 0.3
352.96 K, 6000 kPa, x2 = 0.05	699.2 ± 0.3
352.96 K, 6000 kPa, x2 = 0.5063	676.8 ± 0.3
352.96 K, 7000 kPa, x2 = 0.05	700.2 ± 0.3
352.96 K, 7000 kPa, x2 = 0.5063	677.9 ± 0.3
352.96 K, 8001 kPa, x2 = 0.05	701.2 ± 0.3
352.96 K, 8001 kPa, x2 = 0.5063	679 ± 0.3
352.96 K, 9000 kPa, x2 = 0.05	702.2 ± 0.3
352.96 K, 9000 kPa, x2 = 0.5063	680.1 ± 0.3
352.96 K, 10000 kPa, x2 = 0.05	703.2 ± 0.3
352.96 K, 10000 kPa, x2 = 0.5063	681.2 ± 0.3
352.96 K, 11000 kPa, x2 = 0.05	704.1 ± 0.3
352.96 K, 11000 kPa, x2 = 0.5063	682.2 ± 0.3
352.96 K, 12000 kPa, x2 = 0.05	705.1 ± 0.3
352.96 K, 12000 kPa, x2 = 0.5063	683.2 ± 0.4
352.96 K, 13000 kPa, x2 = 0.05	706 ± 0.4
352.96 K, 13000 kPa, x2 = 0.5063	684.2 ± 0.4
352.96 K, 14000 kPa, x2 = 0.05	706.9 ± 0.4
352.96 K, 14000 kPa, x2 = 0.5063	685.2 ± 0.4
352.96 K, 15000 kPa, x2 = 0.05	707.8 ± 0.4
352.96 K, 15000 kPa, x2 = 0.5063	686.2 ± 0.4
352.96 K, 16000 kPa, x2 = 0.05	708.7 ± 0.4
352.96 K, 16000 kPa, x2 = 0.5063	687.2 ± 0.4
352.96 K, 17000 kPa, x2 = 0.05	709.6 ± 0.4
352.96 K, 17001 kPa, x2 = 0.5063	688.1 ± 0.4
352.96 K, 18000 kPa, x2 = 0.05	710.4 ± 0.4
352.96 K, 18000 kPa, x2 = 0.5063	689.1 ± 0.4
352.96 K, 19000 kPa, x2 = 0.05	711.3 ± 0.4
352.96 K, 19000 kPa, x2 = 0.5063	690 ± 0.4
